Tested on: adriamycin induced nephropathy (FSGS model)
Assay: Adriamycin induced nephropathy mouse model of FSGS, proteinuria (UPCR, UACR) in spot urine
Format: in vivo, Female Balb/c mice
Settings: for urinary protein to creatinine ratio (UPCR): Balb/c mice, adriamycin 10.5 mg/kg i.v., chow + genistein 500 mg/kg (about 80 mg/kg mouse/day) from day 2, weekly spot urine, vs control chow
Experimental: For biological testing of genistein, the accepted mouse models of FSGS, was chosen, i.e. the adriamycin induced nephropathy. […] All animal experiments and handling were in accordance with the Austrian law for protection of animals and approved by the animal ethics committee of the Austrian ministry for science and research.
Adriamycin (Doxorubicin; Sigma, D1515-10 mg) was diluted in ddH2O. To induce FSGS, a dose of 10.5 mg/kg mouse was injected i.v. into the tail vein using 27G needles, i.e. a total volume of 200 μl volume per 25 g mouse.
For tail vein injection, mice were anaesthetized using Ketanest (Pfizer, 25 mg/ml vials) and Rompun (Bayer, 20 mg/ml injection solution). A final mix of 12.5 mg/ml Ketanest and 0.25% Rompun in 0.9% NaCl solution was prepared and 200 μl/25 g mouse were injected. Genistein (Selleckchem, S1342) was used for therapy experiments.
Female Balb/c mice were obtained from the animal breeding facility of the Medical University (Abteilung kw Labortierkunde, Himberg, Austria). 8-18 weeks old animals with a weight >17g were used for the experiments and adjusted for weight and age. Animals were allowed acclimatization of at least 7 days. Animal were marked by ear or toe clip codes to allow identification. Adriamycin nephropathy in Balb/c mice is the most commonly used animal model for preclinical FSGS studies and shares the central features with human FSGS.
Standard commercial chow from ssniff (ssniff Spezialdiäten GmbH, Soest, Germany) contained crude protein (19%), crude fat (3.3%), crude fiber (4.9%), crude ash (6.4%), starch (36.5%), sugar (4.7%). Control group animals were fed standard chow, test group animals standard chow+genistein (500 mg/kg) produced by ssniff. All animals were allowed to eat ad libitum assuming a daily average uptake of about 4 grams/mouse (according to animal care guideline of the Johns Hopkins University, Baltimore, MD, USA; http://web.jhu.edu/animalcare/ procedures/mouse.html), i.e. about 80 mg genistein/kg mouse/day (Odle et al. 2017).
Spot urine was collected every week and Creatinine and protein levels were measured in the Clinical Institute for Laboratory Medicine of the Medical University Vienna.
Urinary albumin was measured by ELISA. 96-well plates were coated over night at 4° C. with 100 μl antibody solution Anti Mouse Serum Albumin antibody (Abcam ab34807, Lot GR3242102-4; diluted 1:2,000) in coating buffer (3.7g NaHCO3; 0.64 g Na2CO3; 1L distilled water). The remaining procedure was performed at room temperature. Wells were washed 3× with HBSS (Sigma H8264-500ML) +0,05% Tween-20 (Bio-Rad, #1706531) and blocked in ELISA/ELISPOT Diluent (eBioscience, 00-4202-56) and washed again for 3×. Samples and standard curve were both diluted in ELISA/ELISPOT diluent were incubated for 2 h, followed by 3 wash steps with HBSS+0.05% Tween-20, incubated with HRP antibody Anti Mouse Serum Albumin antibody (Abcam ab19195, Lot GR3242102-4; diluted 1:100,000) for 1 h, followed by 5 was steps. Reaction was developed with TMB One Solution (Promega, G7431) and stopped with 2N H2SO4. Standard curves were generated with Mouse Albumin (Merck/Sigma, 126674-25MG). 450nm absorbance was measured on an Epoch Microplate reader (BioTek) using Gen5 1.10 software.
R version 4.0.2 was used for statistical analysis. Student's t-test was used for comparing UPCR and UACR values between samples from treated and control mice for each individual time point and to assess differences in histological parameters. […]

O=c1c(-c2ccc(O)cc2)coc2cc(O)cc(O)c12 [Genistein, 5,7-Dihydroxy-3-(4-hydroxyphenyl)chromen-4-one]
urinary protein to creatinine ratio (UPCR): marked amelioration
urinary protein to creatinine ratio (UPCR) (listed as compound of the present invention): significantly lowered
Proteinuria (adriamycin FSGS mice, genistein chow vs control): Significantly Reduces
impact of genistein treatment over time on outcome determined based on UPCR levels (repeated measures ANOVA) (adriamycin FSGS mice, genistein chow vs control, all collected urines (FIG. 1)): significant beneficial impact
urine albumin/creatinine ratio (UACR) (animal studies, urinary albumin by ELISA, genistein vs control): significantly lowered

From patent US20240058298A1, “GENISTEIN FOR USE IN THE TREATMENT OF FOCAL SEGMENTAL GLOMERULOSCLEROSIS (FSGS)” (Delta 4 GmbH, priority 2020, published 2024)
